In patent US20250178998A1, “CRYSTAL FORM OF CYCLOHEXENONE COMPOUND” (TAIHO PHARMACEUTICAL CO., LTD., priority 2022, published 2025):

Legend:
ND3 neuronal cell line = assay: Nerve growth stimulation effect: neurite bearing assay and neurite length assay; type: cell-based; details: for Number of cells (relative cell number, DMSO well = 1) / Neurite length per cell (relative activity, maximum activity of compound (I) = 1) / Proportion of neurite-bearing cells (relative activity, maximum activity of compound (I) = 1): 6 hours
Method: To evaluate the nerve growth stimulation effect, neurite bearing assay (proportion of neurite-bearing cells) and neurite length assay (neurite length) were analyzed with reference to the method of Topalli et al. (Brain Research 1030 (2004), pp. 116-124).
An ND3 neuronal cell line (European Collection of Authenticated Cell Cultures) was seeded in a DMEM medium containing 10% fetal bovine serum (0.6×10^4 cells/1 mL) in a 24-well plate. 24 hours later, the medium of seeded cells was removed, and a solution in which compound (I) that was sequentially diluted in dimethyl sulfoxide (DMSO) was adjusted in DMEM containing 0.1% bovine serum albumin so that the DMSO final concentration was 0.1%, was added to cells (evaluation performed in duplicate). After six hours from the addition, the proportion of neurite-bearing cells (the number of cells having a neurite longer than the diameter of the cell body/number of total cells), and the neurite length per cell were analyzed. Further, a test was performed in the same manner as described above, except that compound A was used in place of compound (I). The number of total cells, proportion of neurite-bearing cells, and neurite length per cell were analyzed using a MetaMorph Neurite Outgrowth Application Module (Molecular Devices Japan K. K.). The number of cells was defined as the relative cell number, taking the number of cells per well containing DMSO as 1 (Tables 4 and 5). […] The test was conducted multiple times, and the average value was shown. Data with a number of cells of 0.5 or more was used. Accordingly, if the number of cells was less than 0.5, the neurite length per cell and the proportion of neurite-bearing cells were defined as […]

[1] = tested on: streptozotocin-induced diabetes mellitus (DM) rat model; assay: Drug efficacy in diabetes mellitus (DM) rat model, bladder function by cystometry; type: in vivo, SD rats; details: STZ DM rats, oral twice a day for 4 weeks
Method: To examine the effect of the compound in a diabetes mellitus model, bladder function was analyzed by cystometry based on the method of Saitoh et al. (European Journal of Pharmacology 501 (2004) 143-149).
A streptozotocin (STZ) solution obtained by dissolving STZ in a citrate buffer solution (0.1 M citric acid, pH of 4.2) to a concentration of 32.5 mg/mL was prepared, and administered intraperitoneally (65 mg/kg) to SD rats to induce DM models. The same procedure was performed on sham rats except that a citrate buffer solution was used in place of the STZ solution.
On the day after the model production and 4 weeks later, a blood sample was taken from the tail vein with the rats awake to measure the blood glucose level. […] Individuals with a blood glucose level of 300 mg/dL or more on the day after the production of the model and 4 weeks later were determined to be established DM models and used in subsequent operations. […]
A pressure transducer (DX-360, Nihon Kohden Kogyo Co., Ltd.) and an infusion pump (TE-331S, Terumo Corporation) were connected via a three-way valve to the other end of the catheter inserted into the bladder. […] The volume of urination was automatically measured using an electronic balance (GX-200, A&D Company Limited) set directly under the holding cage, and recorded continuously on a computer using a PowerLab (sampling rate: 20/sec). […]

[2] = Pharmacokinetics after oral administration to rats; type: in vivo, rat (Crl: CD (SD)); details: male rat, 10 mg/kg
Method: The required amount of compound (I) was weighed, and a drug suspension was prepared in 0.5% hydroxypropyl methylcellulose. The number of rats in each group was two, and each drug suspension was administered orally to each male rat (Crl: CD (SD)) using an oral sonde (the dose of the compound was 10 mg/kg). At each blood collection point (0.5, 1, 2, 4, 8, and 24 hours after administration), blood was collected from the jugular vein using a syringe and a needle (the anticoagulant was heparin sodium). The collected blood was centrifuged (13000 rpm, 2 min, 4° C.) to prepare plasma, followed by deproteinization. Thereafter, the concentration of the compound in the plasma was measured by LC/MS/MS (LCMS-8040 (Shimadzu Corporation) or API 4000 (AB Sciex), LC: 30-A and 20-A series (Shimadzu Corporation) or Waters Acquity (Waters Corporation)). A drug suspension was prepared and administered, and the concentration of the compound was measured, in the same manner as described above, except that compound A was used in place of compound (I).

[3] = Solid stability test (HPLC purity after storage); type: physicochemical; details: for Change in purity / Change in purity (in words) / Increase in related substances / Purity after 4 weeks of storage under sealed conditions at 25° C.: 25° C./60% RH (closed system), 4 weeks; for Purity after 4 weeks of storage under sealed conditions at 25° C. / Purity of compound (I) before storage: HPLC
Method: The solid stability of the type I crystal, type II crystal, and type III crystal of compound (I) obtained in Examples 1 to 3 was evaluated after storage for 4 weeks.
Storage condition: 25° C./60% RH (closed system)
Storage amount: about 25 mg
Storage container: glass bottle
Changes in the purity of compound (I) and in the amounts of related substances (the amounts of substances detected other than compound (I)) were analyzed by weighing about 1 mg of the sample, dissolving it in 2 mL of acetonitrile, and accurately measuring 5 μL of this liquid for analysis by HPLC according to the following method. The handling of the apparatus, including data processing, was in accordance with the method and procedure as instructed for each apparatus.
Column: YMC-Triart C8 (4.6×150 mm, 3 μm), produced by YMC Co., Ltd.
Column temperature: 40° C.
Sample concentration: 0.5 mg/mL
Mobile phase A: Liquid mixture of water/acetonitrile (1:1 v/v)
Mobile phase B: Acetonitrile

[4] = Dynamic moisture adsorption/desorption test; type: physicochemical; details: at 95% relative humidity, 25° C.
Method: The type I crystal, type II crystal, and type III crystal of compound (I) obtained in Examples 1 to 3 were subjected to a moisture adsorption/desorption test after storage for 4 weeks.
The moisture adsorption/desorption test was performed according to the following conditions.
About 10 mg of the sample was filled in a dedicated quartz holder, and the weight of the sample at each humidity was continuously measured and recorded under the following conditions. The handling of the apparatus, including data processing, was in accordance with the method and procedure as instructed for each apparatus.
Apparatus: VTI-SA+ (TA Instruments, Inc.)
Drying temperature: 25° C.
Temperature increase rate: 1° C./min
Measurement temperature: 25° C.
Relative humidity program: Increase by 5% RH from 5% RH to 95% RH and decrease by 5% RH from 95% RH to 5% RH

Change in purity [3] | Change in purity (in words) [3] | Increase in related substances [3] | Purity after 4 weeks of storage under sealed conditions at 25° C. [3] [%] | Purity of compound (I) before storage [3] [%] | Moisture absorption [4] | SMILES | Number of cells (relative cell number, DMSO well = 1) (ND3 neuronal cell line; 1 μM) | Number of cells (relative cell number, DMSO well = 1) (ND3 neuronal cell line; 3 μM) | Number of cells (relative cell number, DMSO well = 1) (ND3 neuronal cell line; 5 μM) | Number of cells (relative cell number, DMSO well = 1) (ND3 neuronal cell line; 10 μM) | Number of cells (relative cell number, DMSO well = 1) (ND3 neuronal cell line; 30 μM) | other results
+0.01% | almost no change in purity | almost no increase in related substances | 99.71 | 99.70 | almost no moisture absorption | COCCCCCCCCCCCCCCCC1=C(C)C(=O)CCC1(C)C [Type I crystal, 3-(15-methoxypentadecyl)-2,4,4-trimethylcyclohex-2-en-1-one] | – | – | – | – | – | –
– | almost no change in purity | almost no increase in related substances | 99.77 | 99.77 | almost no moisture absorption | COCCCCCCCCCCCCCCCC1=C(C)C(=O)CCC1(C)C [Type III crystal, 3-(15-methoxypentadecyl)-2,4,4-trimethylcyclohex-2-en-1-one] | – | – | – | – | – | –

Second part, the molecule before the results:

SMILES | Change in purity [3] | Change in purity (in words) [3] | Increase in related substances [3] | Purity after 4 weeks of storage under sealed conditions at 25° C. [3] [%] | Purity of compound (I) before storage [3] [%] | Moisture absorption [4] | Number of cells (relative cell number, DMSO well = 1) (ND3 neuronal cell line; 1 μM) | Number of cells (relative cell number, DMSO well = 1) (ND3 neuronal cell line; 3 μM) | Number of cells (relative cell number, DMSO well = 1) (ND3 neuronal cell line; 5 μM) | Number of cells (relative cell number, DMSO well = 1) (ND3 neuronal cell line; 10 μM) | Number of cells (relative cell number, DMSO well = 1) (ND3 neuronal cell line; 30 μM) | other results
COCCCCCCCCCCCCCCCC1=C(C)C(=O)CCC1(C)C [Compound (I), 3-(15-methoxypentadecyl)-2,4,4-trimethylcyclohex-2-en-1-one] | – | – | – | – | – | – | 1.06 | 1.01 | 0.94 | 0.92 | 0.96 | Number of cells (relative cell number, DMSO well = 1) (ND3 neuronal cell line; 100 μM): 0.92; Nerve growth stimulation effect compared to compound A (ND3 neuronal cell line; Table 5): excellent nerve growth stimulation effect; Number of relative cells (ND3 neuronal cell line; added in an amount of 1 to 100 μM): ≥ 0.5; Drug efficacy (residual urine volume, FIG. 10) as compared to compound A [1]: remarkable drug efficacy; Improvement in area under the curve (AUC) as compared to compound A [2]: ≥ 1900 times; Improvement in maximum blood concentration Cmax as compared to compound A [2]: ≥ 1100 times
COCCCCCCCCCCCCCCCC1=C(C)C(=O)CCC1(C)C [Type II crystal, 3-(15-methoxypentadecyl)-2,4,4-trimethylcyclohex-2-en-1-one] | −0.01% | almost no change in purity | almost no increase in related substances | 99.72 | 99.73 | almost no moisture absorption | – | – | – | – | – | –
CC1=C(CCCCCCCCCCCCCCCO)C(C)(C)CCC1=O [Compound A, 3-(15-Hydroxypentadecyl)-2,4,4-trimethylcyclohex-2-en-1-one] | – | – | – | – | – | – | 1.03 | 0.92 | 0.92 | 1.0 | 0.19 | Neurite length per cell (relative activity, maximum activity of compound (I) = 1) (ND3 neuronal cell line; 1 μM): 0.26; Proportion of neurite-bearing cells (relative activity, maximum activity of compound (I) = 1) (ND3 neuronal cell line; 1 μM): 0.24; Neurite length per cell (relative activity, maximum activity of compound (I) = 1) (ND3 neuronal cell line; 3 μM): 0.33; Proportion of neurite-bearing cells (relative activity, maximum activity of compound (I) = 1) (ND3 neuronal cell line; 3 μM): 0.34; Neurite length per cell (relative activity, maximum activity of compound (I) = 1) (ND3 neuronal cell line; 5 μM): 0.39; Proportion of neurite-bearing cells (relative activity, maximum activity of compound (I) = 1) (ND3 neuronal cell line; 5 μM): 0.41; Neurite length per cell (relative activity, maximum activity of compound (I) = 1) (ND3 neuronal cell line; 10 μM): 0.71; Proportion of neurite-bearing cells (relative activity, maximum activity of compound (I) = 1) (ND3 neuronal cell line; 10 μM): 0.70
